What was measured:
hepatoblasts = experiment: Step-down removal of factors from the HB organoid expansion medium; type: cell-based, human; details: for Ki67 expression level after removing the factor: flow cytometry, compared with complete medium group
From the text: Based on the related-signaling pathways affecting the regeneration/proliferation/expansion of hepatoblasts in vivo and in vitro, the development of the medium formula for HB organoid expansion was to initially select small molecules or cytokines corresponding to the pathways to mimic the process of hepatic progenitor regeneration, and finally the combination of small molecules with cytokines had been established. Through comprehensive investigation on a large amount of literature, it had been shown that Wnt, TGFβ, cAMP, Activin, EGF and HGF pathways were related to the regeneration of hepatoblasts. […] Afterwards, the step-down method through removing factors one by one from the combination had been used to verify which small molecule/cytokine was essential for the long-term culture of hepatoblasts. […] Finally, flow cytometry had been used to detect the expression levels of cell proliferation marker Ki67. […] Therefore, finally the expansion medium of HB organoid was determined as the fifth medium in Example 1: IMDM medium supplemented with 10 % w/w FBS, 1% w/w ITS, 1% w/w NEAA, 1% w/w GlutaMAX, 10 mM Nicotinamide, 5 μM CHIR99021, 10 µM SB431542, 10 μM FSK, 20 ng/mL FGF-4, 20 ng/mL BMP4, 20 ng/mL EGF and 5% Matrigel.

[1] = tested on: polarized hepatocyte organoids; experiment: Drug toxicology analysis (cell viability, IC50) in polarized hepatocyte organoids; type: cell-based, human; details: 48 hours after drug treatment, cell viability detection kit
Protocol: Polarized hepatocyte organoids (could be used in drug screening models 6 days after the maturation) after the maturation from the differentiation were collected, and distributed into ultra-low attachment 96-well culture plates using the pipette, about 10-20 organoids were seeded in each well, then different drugs could be employed for toxicology analysis. In this Example, toxicology analysis was performed on 8 kinds of drugs (Mannitol, Troglitazone, Chlorpromazine, Diclofenac, Cyclosporine A, Nefazodone, Tolcapone, Bosentan) to detect the ability of polarized hepatocyte organoids to predict the toxicity of each drug during drug screening/toxicology analysis. During the toxicology analysis, at least 7 different concentrations were selected for each drug, and wells in triplicate were performed for each concentration. Forty-eight hours after drug treatment, cell viabilities are detected using cell viability detection kit and IC50 curves were drawn. Finally, IC50 value of each drug for each cell type was calculated. In addition to polarized hepatocyte organoids, non-polarized hepatocyte spheroids and HepG2 cells (hepatoma cell lines, commonly used for hepatocyte drug screening) spheroids were also simultaneously used for drug toxicology analysis.

[2] = tested on: polarized hepatocyte organoids; experiment: Cholestasis detection by CDFDA staining; type: cell-based, human; details: drug at its IC25 value for 48 hours
Protocol: In addition, CDFDA staining was used to test the appearance of the cholestasis in polarized hepatocyte organoids which are treated by these drugs at IC25 values of each drug for 48 hours, and then the occurrence of the cholestasis after drug treatment was evaluated by whether fluorescent CDFDA product is transported into bile canaliculi through apical protein.

hepatocyte organoids = experiment: Hepatocyte lipid accumulation model induced with oleic acid; type: cell-based, human
Protocol: After mature hepatocyte organoids were differentiated from long-term cultured HB organoids (the lipid accumulation model could be developed 6 days after the differentiation), oleic acid (OA) was used with the concentrations at 200 and 800 μM to induce the lipid accumulation model. […] Next spermidine (SPD), a drug that alleviates lipid accumulation in hepatocytes, was used to conduct the rescue. SPD was added into the medium at 200 μM at the same time during the treatment with OA. […] The above results lay the foundation for the subsequent applications of polarized hepatocyte organoids in the development of drugs related to hepatocyte lipid accumulation and the treatment of lipid accumulation.

[3] = tested on: phase I metabolizing enzymes
[4] = factor removed from complete medium

Question: How did the “effect of Rock inhibitor during the expansion of HB organoids” value (hepatoblasts; added at cell inoculation) turn out when `C[C@@H](N)[C@H]1CC[C@H](C(=O)Nc2ccncc2)CC1` [Y27632, Y-27632] was run?
Answer: Its value is “only maintains cell viability at day 0”.

Question: And the “Ki67 expression level after removing the factor” value (hepatoblasts)?
Answer: Its value is “higher expression peak”.

Question: `OC[C@@H](O)[C@@H](O)[C@H](O)[C@H](O)CO` [Mannitol] was tested. Which toxicity to hepatocytes [1] did it give?
Answer: Its toxicity to hepatocytes is “no toxic”.

Question: What about the “occurrence of the cholestasis” value [2] of the same compound?
Answer: Its value is “do not induce the cholestasis”.

Question: Which “Ki67 expression level after removing the factor” value (hepatoblasts) does the source give for hepatocyte growth factor [HGF] here?
Answer: Its value is “higher expression peak”.

Question: With `Cc1c[nH]c(-c2cnc(NCCNc3ccc(C#N)cn3)nc2-c2ccc(Cl)cc2Cl)n1` [CHIR99021] as the compound, how does the “efficiency of cloning formation after removing the factor” value (hepatoblasts; [4]) read?
Answer: The value was “significantly reduced”.

Question: And the “morphological changes of cell spheroids after removing the factor” value (hepatoblasts; [4])?
Answer: The value was “unable to form hollow organoid-like structures”.

Question: For `CCCCCCCC/C=C\CCCCCCCC(=O)O` [OA, oleic acid], which “levels of intracellular ROS” value (hepatocyte organoids; OA 200 and 800 μM, flow cytometry) is on record?
Answer: The value was “increased”.

Question: And the “levels of intracellular triglyceride” value (hepatocyte organoids; OA 200 and 800 μM, kit)?
Answer: The value was “increase”.

Question: And the “content of lipid droplets” value (hepatocyte organoids; OA 200 and 800 μM, two days, oil red staining)?
Answer: Its value is “gradually increased”.

Question: And the “expression levels of lipid accumulation related genes FASN and PLIN2” value (hepatocyte organoids; after OA modeling, qPCR)?
Answer: Its value is “significantly increased”.

Question: How did the “drug metabolism levels (metabolic function of CYP3A4, CYP2C9 and CYP1A2)” value [3] turn out when `COc1ccc2[nH]c([S+]([O-])Cc3ncc(C)c(OC)c3C)nc2c1` (centres unmarked) [omeprazole] was run?
Answer: The value was “higher”.

Question: Which “occurrence of the cholestasis” value [2] does the source give for `Cc1ccc(C(=O)c2cc(O)c(O)c([N+](=O)[O-])c2)cc1` [Tolcapone] here?
Answer: Its value is “do not induce the cholestasis”.

Question: `O=C(O)Cc1ccccc1Nc1c(Cl)cccc1Cl` [Dicofenac, Diclofenac] was tested. Which “occurrence of the cholestasis” value [2] did it give?
Answer: The value was “do not induce the cholestasis”.

Question: `NC(=O)c1ccc(-c2nc(-c3ccc4c(c3)OCO4)c(-c3ccccn3)[nH]2)cc1` [SB431542] was tested. Which “efficiency of cloning formation after removing the factor” value (hepatoblasts; [4]) did it give?
Answer: Its value is “significantly reduced”.

Question: For `NCCCCNCCCN` [SPD, spermidine], which “relative number of lipid droplets” value (hepatocyte organoids; SPD 200 μM added with OA, two days) is on record?
Answer: Its value is “significantly reduced”.

Question: What about the “expression levels of genes related to lipid accumulation” value (hepatocyte organoids; SPD 200 μM added with OA, two days, qPCR) of the same compound?
Answer: The value was “decreased”.

From patent US20250295701A1, “Kit for Induction of Continuous Expansion of Hepatoblast Organoids and/or Hepatocyte Organoids Under 3D Suspension Conditions and Use Thereof” (South China University of Technology, priority 2022, published 2025)
